Holding throughout (assay type): functional
What all share (design): scale not given: the % may be the effect or the level left

In experiment [1] the test system is Rattus norvegicus. The experiment can be described thus: Antihyperglycemic activity in albino Rattus norvegicus Sprague-Dawley (rat) streptozotocin-induced diabetic model assessed as reduction of AUC of blood glucose level at 100 mg/kg, po after 24 hr.
For experiment [2], the system named is Rattus norvegicus. The experiment can be described thus: Antihyperglycemic activity in albino Rattus norvegicus Sprague-Dawley (rat) streptozotocin-induced diabetic model assessed as reduction of AUC of blood glucose level at 100 mg/kg, po after 5 hr.
For experiment [3], the system named is Rattus norvegicus. Nature of the experiment: Antihyperglycemic activity in albino Rattus norvegicus Sprague-Dawley (rat) streptozotocin-induced diabetic model assessed as reduction of AUC of blood glucose level at 50 mg/kg, po after 24 hr.
Experiment [4] relates to Rattus norvegicus. Nature of the experiment: Antihyperglycemic activity in albino Rattus norvegicus Sprague-Dawley (rat) streptozotocin-induced diabetic model assessed as reduction of AUC of blood glucose level at 50 mg/kg, po after 5 hr.

Molecules are shown by their SMILES.

In the case of `CN(C)C(=N)NC(=N)N` [METFORMIN], the Activity is 24.9% with Rattus norvegicus [1] and 26% in the experiment with Rattus norvegicus [2].
With `C[N+](C)(C)[C@@H](Cc1c[nH]c2ccccc12)C(=O)[O-]` [Hypaphorine], the results for the Activity in the experiment on Rattus norvegicus [3] and in the experiment with Rattus norvegicus [4] were 20.4% and 27.8%, respectively.

The record behind these values is ChEMBL document CHEMBL3045467, “Major alkaloidal constituent from Impatiens niamniamensis seeds as antihyperglycemic agent” (2011).
